Measured values: PubChem BioAssay (NCI)
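Test compounds were applied to cells in 96-well plates for 48 hours at 5 doses. TGI is the concentration that stops growth completely.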

Columns and labels:
Test in all cases: DTP human tumour cell line panel, 48 h
PC-3 prostate = test system: PC-3 prostate
SF-295 CNS = test system: SF-295 CNS
HOP-62 NSCLC = test system: HOP-62 NSCLC
NCI/ADR-RES ovarian = test system: NCI/ADR-RES ovarian
UO-31 renal = test system: UO-31 renal
HCT-116 colon = test system: HCT-116 colon
EKVX NSCLC = test system: EKVX NSCLC
M14 melanoma = test system: M14 melanoma
OVCAR-8 ovarian = test system: OVCAR-8 ovarian
SNB-19 CNS = test system: SNB-19 CNS
SK-MEL-5 melanoma = test system: SK-MEL-5 melanoma
HCC-2998 colon = test system: HCC-2998 colon
NCI-H226 lung = test system: NCI-H226 lung
ACHN renal = test system: ACHN renal
DU-145 prostate = test system: DU-145 prostate
UACC-257 melanoma = test system: UACC-257 melanoma
HT29 colon = test system: HT29 colon
CAKI-1 renal = test system: CAKI-1 renal
RPMI-8226 leukemia = test system: RPMI-8226 leukemia

| SMILES | TGI (PC-3 prostate) | TGI (SF-295 CNS) | TGI (HOP-62 NSCLC) | TGI (NCI/ADR-RES ovarian) | TGI (UO-31 renal) | TGI (HCT-116 colon) | TGI (EKVX NSCLC) | TGI (M14 melanoma) | TGI (OVCAR-8 ovarian) | TGI (SNB-19 CNS) | TGI (SK-MEL-5 melanoma) | TGI (HCC-2998 colon) | TGI (NCI-H226 lung) | TGI (ACHN renal) | TGI (DU-145 prostate) | TGI (UACC-257 melanoma) | TGI (HT29 colon) | TGI (CAKI-1 renal) | TGI (RPMI-8226 leukemia) |
| --- | --- | --- | --- | --- | --- | --- | --- | --- | --- | --- | --- | --- | --- | --- | --- | --- | --- | --- | --- |
| c1ccc(C2(c3ccccc3)S/C(=C3/SC(c4ccccc4)(c4ccccc4)c4ccccc43)c3ccccc32)cc1 | > 100 µM | > 100 µM | > 100 µM | > 100 µM | > 100 µM | > 100 µM | > 100 µM | > 100 µM | > 100 µM | > 100 µM | > 100 µM | > 100 µM | > 100 µM | > 100 µM | > 100 µM | > 100 µM | > 100 µM | > 100 µM |  |
| NNC(=O)CC(=O)Nc1ccccc1Cl | > 100 µM | > 100 µM | > 100 µM | > 100 µM | > 100 µM | > 100 µM | > 100 µM |  | > 100 µM | > 100 µM | > 100 µM |  |  | > 100 µM | > 100 µM | > 100 µM | > 100 µM | > 100 µM | > 100 µM |
| CC(=O)Oc1c(C)cc2c(c1C)C(C)(C)CN2C(=O)C(C)(C)C | > 100 µM | > 100 µM | > 100 µM | > 100 µM | > 100 µM | > 100 µM | > 100 µM | > 100 µM | > 100 µM | > 100 µM | > 100 µM | > 100 µM | > 100 µM | > 100 µM | > 100 µM | > 100 µM | > 100 µM |  | > 100 µM |
| COC1CC(=O)C2C(=O)N(c3ccccc3)C(=O)C23C(C(=O)c2ccccc2)=C(C)NC13O (configuration not stated) | 34.5 µM | > 100 µM | 41.9 µM | 50.9 µM | 40.9 µM | 22.6 µM | 59.9 µM | 35.5 µM | > 100 µM | 51.1 µM | 37.4 µM |  |  | 37.5 µM | 27.8 µM | 56.2 µM | 34.2 µM | 22.1 µM | 21.3 µM |
| Cn1c(=O)c2c(nc(N3CCOCC3)n2CCCNCC(O)c2ccc(O)c(O)c2)n(C)c1=O (configuration not stated) | > 100 µM | > 100 µM | > 100 µM | > 100 µM | > 100 µM | > 100 µM | > 100 µM | > 100 µM | > 100 µM | > 100 µM | > 100 µM |  | > 100 µM | > 100 µM | > 100 µM | > 100 µM | > 100 µM | > 100 µM | > 100 µM |
| COc1cccc([C@@H]2C/C(=N\NC(=O)C(=O)N[C@@H](C)c3ccccc3)c3cc4c(cc3N2)OCO4)c1 | > 100 µM | > 100 µM | > 100 µM | > 100 µM | > 100 µM | > 100 µM | > 100 µM | > 100 µM |  | > 100 µM | 65.3 µM | > 100 µM | > 100 µM | > 100 µM | > 100 µM | > 100 µM |  | > 100 µM | > 100 µM |
| Cc1cc2nn(C3CCCCO3)nc2cc1C (configuration not stated) | > 100 µM | > 100 µM | > 100 µM | > 100 µM | > 100 µM | > 100 µM | > 100 µM | > 100 µM | > 100 µM | > 100 µM | > 100 µM | > 100 µM | > 100 µM | > 100 µM | > 100 µM | > 100 µM | > 100 µM | > 100 µM |  |
| S=C(Nc1ccc(Cl)cc1)c1ccc(CN2CCCCC2)s1 | 73.4 µM |  |  | > 100 µM | 31.9 µM | 25.5 µM | 35.1 µM | 26.7 µM | 27.1 µM |  | 15.1 µM | 21.6 µM |  | 60.2 µM | > 100 µM | > 100 µM | 19.5 µM | 52.1 µM | 20.2 µM |
| Cc1cc(C)c(-n2c(C)c(C)c(C#N)c2N)c(C)c1 | 89 µM | > 100 µM | > 100 µM | > 100 µM | > 100 µM | 48.9 µM | 87.6 µM | > 100 µM | > 100 µM | > 100 µM | 37.2 µM |  | > 100 µM | 78.9 µM | > 100 µM | 60.8 µM | > 100 µM | > 100 µM | 54.6 µM |
| CCOC(=O)CC[C@H](NC(=O)c1ccc(CNc2nc3cc(C(F)(F)F)ccc3nc2C(=O)OCC)cc1)C(=O)OCC | > 89.3 µM | 24.7 µM | > 46 µM | > 100 µM | 70.3 µM | > 100 µM | 42.7 µM | > 66.2 µM | > 100 µM | 25.4 µM | > 66.6 µM |  |  | > 93.2 µM | > 100 µM | > 100 µM | > 100 µM | 29.5 µM | > 100 µM |
| Cn1cc(S(=O)(=O)NC(=O)Nc2ccc(Cl)cc2)c(=O)c2ccc(Cl)cc21 | > 100 µM | > 100 µM | > 100 µM | > 100 µM | > 100 µM | > 100 µM | > 100 µM | > 100 µM | > 100 µM | > 100 µM | > 100 µM | > 100 µM | > 100 µM | > 100 µM |  | > 100 µM | > 100 µM | > 100 µM |  |
| O=C1OCCC12CN(Cc1ccccc1)N=N2 (configuration not stated) | > 100 µM | > 100 µM | > 100 µM | > 100 µM | > 100 µM | > 100 µM |  | > 100 µM | > 100 µM | > 100 µM | > 100 µM | > 100 µM |  | > 100 µM | > 100 µM |  | > 100 µM | > 100 µM | > 100 µM |
| CCC(C#N)NCc1ccc(CNC(C#N)CC)cc1 (configuration not stated) | > 100 µM | > 100 µM |  | > 100 µM | > 100 µM | > 100 µM | > 100 µM | > 100 µM | > 100 µM | > 100 µM | > 100 µM | > 100 µM | > 100 µM | > 100 µM | > 100 µM | > 100 µM | > 100 µM | > 100 µM |  |
